# In paper PMC8263253, “Agonist and antagonist properties of an insect GABA-gated chloride channel (RDL) are influenced by heterologous expression conditions” (PLoS ONE, 2021):
# “And” between values parts separate entries of the source, which are not always exact repeats. Identical values can stand only once.
# Target: BtRDL (Bombus terrestris RDL GABA-gated chloride channel) (Bombus terrestris audax, UniProt A0A8F2J2P3)
# Experiment: Two-electrode voltage-clamp recording of BtRDL expressed in Xenopus oocytes
# Type: cell-based
# Details: for IC50: IC50 for block of GABA responses
# Protocol: For convenience, these amounts of cRNA are referred to subsequently as 1 ng and 10 ng.
# Xenopus were anaesthetised by immersion in 0.2% MS222 for 15 minutes (or until complete anaesthesia was confirmed by absence of leg-withdrawal and righting reflex), followed by cranial concussion, decapitation and pithing. Xenopus oocytes were isolated, maintained and injected with cRNA, as described previously [24]. […] Application of compounds was controlled by LabChart software (AD Instruments) using a BPS-8 solenoid valve solution exchange system (ALA Scientific Inc). Typically, agonists were applied for 5 s or until a plateau in the response was observed. Antagonists were pre-applied for 30 s and then co-applied with agonist for 5s or until a plateau in the response. was observed.
# Sequence of BtRDL (Bombus terrestris RDL GABA-gated chloride channel) (A0A8F2J2P3 entry or part of it): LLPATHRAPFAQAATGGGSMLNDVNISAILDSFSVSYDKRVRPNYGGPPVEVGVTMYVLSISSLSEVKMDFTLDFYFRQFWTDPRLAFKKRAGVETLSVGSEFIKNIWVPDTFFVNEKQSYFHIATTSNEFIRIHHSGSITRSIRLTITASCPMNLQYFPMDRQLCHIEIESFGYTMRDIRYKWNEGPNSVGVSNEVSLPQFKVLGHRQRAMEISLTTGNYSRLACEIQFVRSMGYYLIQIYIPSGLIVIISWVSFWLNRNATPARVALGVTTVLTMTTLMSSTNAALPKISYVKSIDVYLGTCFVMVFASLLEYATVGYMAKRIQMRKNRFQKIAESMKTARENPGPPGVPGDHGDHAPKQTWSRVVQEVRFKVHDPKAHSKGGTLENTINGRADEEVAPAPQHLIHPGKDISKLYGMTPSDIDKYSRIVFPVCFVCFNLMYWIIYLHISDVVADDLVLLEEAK
smiles,measurement,setting,value
C=C(C)[C@@H]1[C@H]2OC(=O)[C@@H]1[C@]1(O)C[C@H]3O[C@]34C(=O)O[C@H]2[C@]14C [picrotoxinin],IC50,"BtRDL with high apparent affinity for GABA (10 ng cRNA, pGEMHE NheI, three-days), EC50 concentration of GABA 1 μM",14 ± 1.6 µM
same,IC50,"BtRDL with low apparent affinity for GABA (1 ng cRNA, pGEMHE XbaI, three-days), EC50 concentration of GABA 30 μM",1.7 ± 0.3 µM
"CC(C)c1cccc(C(C)C)c1O [Propofol, propofol]",EC50,"propofol apparent affinity (agonist activation), BtRDL with high apparent affinity for GABA (10 ng cRNA +3'UTR, three-days)",82.9 ± 6.4 µM
same,EC50,"propofol apparent affinity (agonist activation), BtRDL with low apparent affinity for GABA (1 ng cRNA +3'UTR, one-day)",198 ± 19.1 µM
"NCCCC(=O)O [GABA, γ-aminobutyric acid]",maximum current (Imax) to GABA,"1 ng BtRDL cRNA lacking 3'UTR, 1–3 days post-injection",0.67 ± 0.04 μA
same,maximum current (Imax) to GABA,BtRDL 1 ng cRNA (+3'UTR) co-expressed with DmNACHO,3.4 ± 0.6 μA
same,EC50,"GABA EC50, pGEMHE-BtRDL digested with NheI (3'UTR retained), 1 ng cRNA, three-days post-injection",4 ± 1.1 µM
same,EC50,"GABA EC50, pGEMHE-BtRDL digested with XbaI (3'UTR removed), 1 ng cRNA, three-days post-injection",27.6 ± 1.6 µM
same,EC50,"GABA EC50, pSP64GL-BtRDL cRNA containing 3'UTR, 1 ng, BtRDL expressed alone, three-days post-injection",3.7 ± 0.4 µM
same,EC50,"GABA EC50, pSP64GL-BtRDL cRNA lacking 3'UTR, 1 ng, three-days post-injection",31.4 ± 2.1 µM
same,EC50,"GABA apparent affinity EC50, BtRDL 1 ng cRNA (+3'UTR) + 10 ng cRNA CeRIC-3, Day 1",10.6 ± 1.1 µM
same,EC50,"GABA apparent affinity EC50, BtRDL 1 ng cRNA (+3'UTR) + 10 ng cRNA CeRIC-3, Day 2",5 ± 0.9 µM
same,EC50,"GABA apparent affinity EC50, BtRDL 1 ng cRNA (+3'UTR) + 10 ng cRNA CeRIC-3, Day 3",4.2 ± 1 µM
same,EC50,"GABA apparent affinity EC50, BtRDL 1 ng cRNA (+3'UTR) + 10 ng cRNA DmNACHO, Day 1",21 ± 1.1 µM
same,EC50,"GABA apparent affinity EC50, BtRDL 1 ng cRNA (+3'UTR) + 10 ng cRNA DmNACHO, Day 2",14.8 ± 1.1 µM
same,EC50,"GABA apparent affinity EC50, BtRDL (+3'UTR), 1 ng cRNA, Day 2 post-injection",4.4 ± 0.7 µM
same,EC50,"GABA apparent affinity EC50, BtRDL (+3'UTR), 1 ng cRNA, Day 3 post-injection",3.9 ± 0.6 µM
same,EC50,"GABA apparent affinity EC50, BtRDL (+3'UTR), 10 ng cRNA, Day 1 post-injection",10.8 ± 1.2 µM
same,EC50,"GABA apparent affinity EC50, BtRDL (+3'UTR), 10 ng cRNA, Day 2 post-injection",2 ± 0.7 µM
same,EC50,"GABA apparent affinity EC50, BtRDL (+3'UTR), 10 ng cRNA, Day 3 post-injection",1.8 ± 0.4 µM
same,EC50,"GABA apparent affinity EC50, BtRDL (-3'UTR), 1 ng cRNA, Day 1 post-injection",29.7 ± 1.1 µM
same,EC50,"GABA apparent affinity EC50, BtRDL (-3'UTR), 1 ng cRNA, Day 2 post-injection",28.3 ± 1.1 µM
same,EC50,"GABA apparent affinity EC50, BtRDL (-3'UTR), 1 ng cRNA, Day 3 post-injection",29.4 ± 1 µM
same,EC50,"GABA apparent affinity EC50, BtRDL (-3'UTR), 10 ng cRNA, Day 1 post-injection",27.3 ± 1.1 µM
same,EC50,"GABA apparent affinity EC50, BtRDL (-3'UTR), 10 ng cRNA, Day 2 post-injection",10.8 ± 1 µM
same,EC50,"GABA apparent affinity EC50, BtRDL (-3'UTR), 10 ng cRNA, Day 3 post-injection",12.5 ± 1 µM
same,EC50,"GABA apparent affinity EC50, BtRDL alone, 1 ng cRNA (+3'UTR), Day 2",4.6 ± 0.9 µM
same,EC50,"apparent affinity for GABA, BtRDL populations with intermediate apparent affinities (summary in discussion)",~4 µM and ~12 µM
same,EC50,"apparent affinity for GABA, BtRDL receptors with high apparent affinity (summary in discussion)",~30 µM
same,EC50,"apparent affinity for GABA, BtRDL receptors with low apparent affinity (summary in discussion)",~2 µM
